In the NIST ThermoML archive (doi:10.1016/j.jct.2003.11.008):

What was measured:
[1] = xn = mol fraction of the nth substance listed; conditions: 318.15 K, 101.3 kPa, Liquid
[2] = excess molar enthalpy (molar enthalpy of mixing); xn = mol fraction of the nth substance listed; conditions: 318.15 K, 101.3 kPa, Liquid

CCCCCCCCCCCCC [tridecane] + CCCOC(C)=O
Conditions | excess molar enthalpy [kcal/mol] | excess molar volume [m3/mol]
[1], x2 = 0.1139 | – | 4.77e-07
[1], x2 = 0.1844 | – | 7.09e-07
[1], x2 = 0.2748 | – | 9.32e-07
[1], x2 = 0.3425 | – | 1.072e-06
[1], x2 = 0.4123 | – | 1.16e-06
[1], x2 = 0.4772 | – | 1.205e-06
[1], x2 = 0.5337 | – | 1.232e-06
[1], x2 = 0.5864 | – | 1.216e-06
[1], x2 = 0.6311 | – | 1.183e-06
[1], x2 = 0.6791 | – | 1.139e-06
[1], x2 = 0.722 | – | 1.069e-06
[1], x2 = 0.7535 | – | 1.012e-06
[1], x2 = 0.7862 | – | 9.31e-07
[1], x2 = 0.8631 | – | 6.98e-07
[1], x2 = 0.9199 | – | 4.58e-07
[1], x2 = 0.9642 | – | 2.27e-07
[2], x2 = 0.087 | 0.103 | –
[2], x2 = 0.1659 | 0.187 | –
[2], x2 = 0.2413 | 0.26 | –
[2], x2 = 0.3093 | 0.312 | –
[2], x2 = 0.3709 | 0.349 | –
[2], x2 = 0.4257 | 0.372 | –
[2], x2 = 0.477 | 0.386 | –
[2], x2 = 0.5193 | 0.39 | –
[2], x2 = 0.5602 | 0.391 | –
[2], x2 = 0.6296 | 0.379 | –
[2], x2 = 0.6706 | 0.367 | –
[2], x2 = 0.716 | 0.346 | –
[2], x2 = 0.7628 | 0.317 | –
[2], x2 = 0.809 | 0.272 | –
[2], x2 = 0.8594 | 0.218 | –
[2], x2 = 0.9097 | 0.158 | –
[2], x2 = 0.9585 | 0.0781 | –

CCCCCCCCCCCCC [tridecane] + CCOC(C)=O
Conditions | excess molar enthalpy [kcal/mol] | excess molar volume [m3/mol]
[1], x2 = 0.1246 | – | 6.09e-07
[1], x2 = 0.2249 | – | 9.81e-07
[1], x2 = 0.3076 | – | 1.215e-06
[1], x2 = 0.3854 | – | 1.386e-06
[1], x2 = 0.4562 | – | 1.461e-06
[1], x2 = 0.5148 | – | 1.515e-06
[1], x2 = 0.5732 | – | 1.518e-06
[1], x2 = 0.6235 | – | 1.506e-06
[1], x2 = 0.6695 | – | 1.462e-06
[1], x2 = 0.7136 | – | 1.402e-06
[1], x2 = 0.7509 | – | 1.322e-06
[1], x2 = 0.775 | – | 1.255e-06
[1], x2 = 0.8123 | – | 1.128e-06
[1], x2 = 0.881 | – | 8.36e-07
[1], x2 = 0.9317 | – | 5.36e-07
[1], x2 = 0.9691 | – | 2.65e-07
[2], x2 = 0.0838 | 0.122 | –
[2], x2 = 0.1616 | 0.217 | –
[2], x2 = 0.2388 | 0.302 | –
[2], x2 = 0.3097 | 0.371 | –
[2], x2 = 0.3743 | 0.42 | –
[2], x2 = 0.4307 | 0.449 | –
[2], x2 = 0.4842 | 0.467 | –
[2], x2 = 0.532 | 0.478 | –
[2], x2 = 0.5728 | 0.479 | –
[2], x2 = 0.6188 | 0.474 | –
[2], x2 = 0.6556 | 0.463 | –
[2], x2 = 0.6946 | 0.449 | –
[2], x2 = 0.7336 | 0.427 | –
[2], x2 = 0.7755 | 0.396 | –
[2], x2 = 0.8179 | 0.354 | –
[2], x2 = 0.8605 | 0.3 | –
[2], x2 = 0.9015 | 0.239 | –
[2], x2 = 0.9432 | 0.161 | –
[2], x2 = 0.9761 | 0.0749 | –
